Laboratory results published in patent publication US20250100988A1, “PREPARATION OF A COMPOUND FOR THE TREATMENT OF GOUT OR HYPERURICEMIA” (Arthrosi Therapeutics, Inc., priority 2021, published 2025).

Assay: Solubility of test articles in HBSS assay buffer
Conditions: at all tested concentrations; highest tested concentration 10 μM
Experimental: Before the experiment, the medium was removed and the cells were washed twice with 100 μL of HBSS without Cl^−. Uptake experiments were carried out at 37±1° C. in 50 μL of HBSS without Cl^−, pH 7.4 containing the probe substrate (20 μM uric acid) and the test article (TA) or solvent.

Q: For CCc1oc2ccccc2c1C(=O)c1cc(Br)c(O)c(Br)c1 [Benzbromarone], which “solubility in HBSS buffer” value is on record?
A: soluble

Q: For [2H]c1c([2H])c([2H])c2c(C(=O)c3cc(Br)c(O)c(Br)c3)c(C(C)O)oc2c1[2H] (centres unmarked) [Compound 1, (3,5-dibromo-4-hydroxyphenyl)(2-(1-hydroxyethyl)benzofuran-3-yl-4,5,6,7-d4)methanone], which “solubility in HBSS buffer” value is on record?
A: soluble
